Literature values in US10543293B2, “Medical dressing” (BSN MEDICAL GMBH, priority 2013, dated 2020).

What was measured:
[1] = generally assumed
endothelial cells = conditions: NO concentrations employed in vitro; human endothelial cells
keratinocytes = conditions: NO concentrations employed in vitro; human keratinocytes
human fibroblasts = conditions: NO concentrations employed in vitro

[N]=O [NO, nitric oxide]
diffusion coefficient of NO relative to oxygen or carbon monoxide (at 37° C., higher than that of oxygen or carbon monoxide): approximately 1.4 times | diffusion path that can be achieved in the tissues (calculated on the basis of the diffusion coefficient): 500 μm | maximum solubility of NO in aqueous solutions [1]: approximately 2 mM | toxic effects (endothelial cells): did not display any toxic effects | toxic effects (keratinocytes): did not display any toxic effects | toxic effects (human fibroblasts): did not display any toxic effects
